The source of these data is patent publication US10619209B2, “Serotonin transporter gene and treatment of opioid-related disorders” (University of Virginia Patent Foundation, priority 2008, dated 2020).

Where a name gives a salt, the structure may show the parent alone.

Series [1] relates to alcohol-dependent individuals. As to the kind of experiment: 12-week randomized controlled pharmacotherapy trial of ondansetron by 5'-HTTLPR genotype (Example 3). The format is in vivo, human. Conditions: for mean (SEM) DDD reduction from baseline across the treatment period: ondansetron 4 μg/kg b.i.d., 12 weeks. From the text: In a pre-planned interim analysis, data were examined for the 226 alcohol-dependent individuals (aged 18-65 years) enrolled into the 12-week randomized controlled pharmacotherapy trial to determine the effect of ondansetron on drinking among individuals who varied on allelic difference at the 5-HTT gene and age of alcoholism onset. All these individuals were enrolled at the University of Texas Health Science Center at San Antonio. Briefly, the study design was 2 (LL vs. LS/SS)×2 (early onset vs. late onset)×2 (ondansetron 4 μg/kg b.i.d. vs. placebo). The inferential results below are for the severity of drinking—drinks/drinking day (DDD).
Demographic data were that: 74% were male and 26% female; 48% were early-onset alcoholics and 52% late-onset alcoholics, and 20% were Hispanic and 80% White. There were no significant differences (P>0.05) on demographics between the treatment groups. Baseline mean (SD) DDD (past 90 days) were also similar for the ondansetron 4 μg/kg b.i.d. and placebo groups—9.83 (4.63) vs. 9.85 (4.49), respectively. The inferential analyses were conducted on all randomized subjects according to the intent-to-treat principle. The analytic plan was first to calculate the DDD in each week. We then used the difference between weekly DDD and the baseline DDD (in the past 90 days) as repeat measures. A mixed-model approach (SAS PROC MIXED) was used to study the effect of treatment, genotype (LL vs. LS/SS), treatment and genotype interaction, age, age of onset (early vs. late), gender, and age at onset of problem drinking, adjusting for the baseline DDD level. Also included is a random slope for time to study the variation in the time trend of the weekly DDD.

Series [2] has as its system alcohol-dependent men and women. In words: 12-week treatment trial of ondansetron by 5'-HTTLPR and rs1042173 genotype (Example 4). The format is in vivo, human. The method, then: 289 alcohol-dependent men and women enrolled in a 12-week treatment trial in which they received either ondansetron (4 μg/kg) or placebo. All subjects also received weekly cognitive behavioral therapy as their standardized psychosocial treatment. Genotyping was conducted on all subjects. Mixed-effects models were used to study the effect of treatment and genotype and their interaction for each of the primary drinking outcomes. The models included random intercept and random slope and were adjusted for covariates such as participants' average 90-day drinking levels prior to the study, age, gender, ethnicity (Caucasian and Hispanic), and center. A variance-components covariance matrix was used to model different variances for the intercept and slope and a covariance between them. Interactions of treatment, genotype, age, and center were first included in the models. They were excluded from the final models if not significant.

For series [3] the following is noted: alcohol trials; 50 mg/day; cited from earlier work.
For series [4] the following is noted: cited from earlier work.
Where [5] appears, read: placebo vs. treatment, LL genotype.
[6] abbreviates: placebo vs. treatment, LS/SS genotype.
Where [7] appears, read: treatment (ondansetron) group, LS/SS vs. LL.

Take `Cc1nccn1CC1CCc2c(c3ccccc3n2C)C1=O` (centres unmarked) [ondansetron, 9-methyl-3-[(2-methyl-1H-imidazol-1-yl)methyl]-1,2,3,9-tetrahydrocarbazol-4-one]: the “mean (SEM) DDD reduction from baseline across the treatment period” value is listed as 5.70 (0.64) DDD in series [1] (LL genotype) and 3.45 (0.44) DDD in series [1] (LS/SS genotype). The “Cohen's d” value came to 0.08 in series [1] (setting [5]), 0.04 in series [1] (setting [6]) and 0.10 in series [1] (setting [7]). Besides, the results for the “Estimate (cell contrast on DDD)” value in series [1] (setting [5]), in series [1] (setting [6]) and in series [1] (setting [7]) were 2.16 DDD, −0.80 DDD and 2.25 DDD, respectively. The “mean difference in DDD” value is listed as −1.50 DDD in series [2] (LL genotype, treatment group vs placebo group); −1.41 DDD in series [2] (treated with ondansetron 4 μg/kg, LL vs LS/SS genotype); −1.31 DDD in series [2] (treated with ondansetron 4 μg/kg, TT vs TG/GG genotype of rs1042173).

With `O=C1CC[C@@]2(O)[C@H]3Cc4ccc(O)c5c4[C@@]2(CCN3CC2CC2)[C@H]1O5` [naltrexone, 17-(Cyclopropylmethyl)-4,5a-epoxy-3,14-dihydroxymorphinan-6-one hydrochloride], the “individuals unable to tolerate the dose” value in series [3] is “about 15%”.

As for `CC1(C)O[C@@H]2[C@@H](CO[C@@]3(COS(N)(=O)=O)OC(C)(C)O[C@@H]23)O1` [topiramate, 2,3:4,5-Bis-O-(1-methylethylidene)-beta-D-fructopyranose sulfamate], the “individuals reporting cognitive impairment” value in series [4] (general population) is 2.4%. In addition, in series [4] (substance abuse field), the “occurrence rate of cognitive impairment” value is listed as “about 18.7%”.
